Among the data in US4552878A, “Benzo- and thieno-triazine-1,2,3 ones-4” (Lipha, Lyonnaise Industrielle Pharmaceutique, priority 1982, dated 1985) are ED50 and LD50 values, retold here.

Each structure is given as a SMILES string. Structures can show the parent of a compound that is named as a salt. Where only a bound is given, the exact number is not on record here.

Data set [1] deals with central effects of 5-hydroxytryptophan. Kind of data set: Potentiation of the central effects of 5-hydroxytryptophan (5-HTP). To be noted: Mus musculus, ip; Swiss mice, I.P., 30 minutes before 300 mg/kg 5-HTP I.P.; observed 30 min later for 1 min; read-out: Potentiation of the 5-HTP ED50 DE50. The format is in vivo. As for the experimental part:
This potentiation objectifying the axonal blocking of the reabsorption of the seratonin at the serotoninergic nerve ends was studied by the method described by T. M. Pugsley and […] The mice are observed 30 min later, for 1 min, during which the following sterotyped movements are classified: extension of the hind paws, trembling, excitement, head shaking.

A short description of data set [2]: Acute oral toxicity, lethal doses 50 (LD50). The note with it: mouse, in vivo.

In general, ED50 refers to the midpoint of the dose-response relation. As usually defined, the LD50 is the dose expected to kill half of the subjects tested. A lower LD50 goes with a more toxic substance. `O=c1c2ccccc2nnn1CCCN1CCN(c2cccc(Cl)c2)CC1` [Example 1, [[(chloro-3 phenyl)-4 piperazinyl-1]-3 propyl]-3-3H-benzotriazine-1,2,3 one-4, hydrochloride]: the ED50 in data set [1] is 3 mg/kg. In data set [2], this compound displayed an LD50 greater than 3200 mg/kg.

Turning to `O=c1c2ccccc2nnn1CCCN1CCN(c2ccccc2Cl)CC1` [Example 6, [[(Chloro-2 phenyl-4 piperazinyl-1]-3 propyl]3-3H-benzotriazine-1,2,3 one 4, hydrochloride], the median effective dose (ED50) in data set [1] turned out to be 12 mg/kg.

With `Cc1ccccc1N1CCN(CCCn2nnc3ccccc3c2=O)CC1` [Example 9, [[(Methyl-2 phenyl)-4 piperazinyl-1]-3 propyl]-3-3H-benzotriazine-1,2,3 one-4 hydrochloride], in data set [1], the ED50 worked out at 5 mg/kg.

For the compound `O=c1c2ccccc2nnn1CCCN1CCN(c2cccc(F)c2)CC1` [Example 10, [[(Fluoro-3phenyl)-4 piperazinyl-1]-3 propyl]-3H-benzotriazine-1,2,3 one-4, hydrochloride], the ED50 in data set [1] is 14 mg/kg. In data set [2], this compound displayed a 50% lethal dose (LD50) of 1500 mg/kg.

On to `O=c1c2ccccc2nnn1CCCN1CCN(c2ccccc2)CC1` [Example 11, [(Phenyl-4 piperazinyl-1)-3 propyl]-3-3H-benzotriazine-1,2,3 one-4 hydrochloride], for which the ED50 in data set [1] came out at 8 mg/kg. In addition, the LD50 in data set [2] worked out at 1000 mg/kg.

As to `COc1cccc(N2CCN(CCCn3nnc4ccccc4c3=O)CC2)c1` [Example 15, [[(Methoxy-3 phenyl)-4 piperazinyl-1]-3 propyl]-3-3H-benzotriazine-1,2,3 one-4], the 50% effective dose (ED50) in data set [1] is 9 mg/kg.

Regarding `COc1ccc(N2CCN(CCCn3nnc4ccccc4c3=O)CC2)cc1` [Example 16, [[(Methoxy-4 phenyl)-4 piperazinyl-1]-3propyl]-3-3H-benzotriazine-1,2,3 one-4], the ED50 in data set [1] worked out at 11 mg/kg.

`O=c1c2ccc(Cl)cc2nnn1CCCN1CCN(c2cccc(Cl)c2)CC1` [Example 19, Chloro-7 [[(chloro-3 phenyl)-4 piperazinyl-1]-3 propyl]-3-3H-benzotriazine-1,2,3 one-4 hydrochloride]: the ED50 in data set [1] was determined as 10 mg/kg.

As for `Cc1ccc2nnn(CCCN3CCN(c4cccc(Cl)c4)CC3)c(=O)c2c1` [Example 20, [[(Chloro-3 phenyl)-1 piperazinyl-1]-3 propyl]-3 methyl-6-3H-benzotriazine-1,2,3 one-4, hydrochloride], the 50% effective dose (ED50) in data set [1] is 8 mg/kg. Besides, the LD50 in data set [2] was greater than 3200 mg/kg.

On to `O=c1c2ccsc2nnn1CCCN1CCN(c2cccc(Cl)c2)CC1` [Example 23, [[(Chloro-3 phenyl)-4-piperazinyl-1]3 propyl]-3-3H-thieno[2,3-d]triazine-1,2,3 one-4 hydrochloride], for which the 50% effective dose (ED50) in data set [1] worked out at 3 mg/kg. The same compound showed an LD50 in data set [2] of 1060 mg/kg.

As to `O=c1c2ccccc2nnn1CCCN1CCN(c2ccc(F)c(Cl)c2)CC1` [Example 27, [[(Chloro-3 fluoro-4 phenyl)-4 piperazinyl-1]-3 propyl]-3-3H-benzotriazine-1,2,3 one-4 hydrochloride], in data set [1], the median effective dose (ED50) was determined as 8 mg/kg.

For the compound `O=c1c2cc(Cl)ccc2nnn1CCCN1CCN(c2ccccc2)CC1` [Example 28, Chloro-6[(phenyl-4 piperazinyl-1)-3 propyl]-3-3H-benzotriazine-1,2,3 one-4 dihyrochloride], the ED50 in data set [1] is 5 mg/kg.

In the case of `COc1ccc(N2CCN(CCCn3nnc4ccccc4c3=O)CC2)cc1OC` [Example 29, [[(Dimethoxy-3,4 phenyl)-4 piperazinyl-1]-3 propyl]-3-3H-benzotriazine-1,2,3 one-4 dihydrochloride], the ED50 in data set [1] amounted to 12 mg/kg.

Turning to `Cl.O=c1n(CCCN2CCN(c3cccc(Cl)c3)CC2)nc2ccccn12` [Trazodone Hydrochloride, 2-[3-[4-(3-chlorophenyl)-1-piperazinyl]propyl]-1,2,4-triazolo[4,3-a]pyridin-3 (2H)-one hydrochloride, reference compound], the LD50 in data set [2] stood at 650 mg/kg.
